Laboratory results as given in patent publication US20010014694A1, “Substituted phenyl compounds and derivatives thereof that modulate the activity of endothelin” (priority 1996, published 2001).
Like-named read-outs stand apart in the source and are kept apart here.

Key:
ETA and ETB receptors = experiment: Endothelin binding inhibition assays of the Examples, result stated for ETA and/or ETB; design: species or system human; conditions: relative to the other compounds listed; in vitro binding assays
Text: (§1) Compounds that are potential endothelin antagonists are identified by testing their ability to compete with ^125I-labeled ET-1 for binding to human ETA receptors or ETB receptors present on isolated cell membranes. The effectiveness of the test compound as an antagonist or agonist of the biological tissue response of endothelin can also be assessed by measuring the effect on endothelin induced contraction of isolated rat thoracic aortic rings. The ability of the compounds to act as antagonists or agonists for ETB receptors can be assess by testing the ability of the compounds are to inhibit endothelin-1 induced prostacyclin release from cultured bovine aortic endothelial cells.
(§2) A. Endothelin Binding Inhibition—Binding Test #1: Inhibition of Binding to ETA Receptors
(§3) TE 671 cells (ATCC Accession No. HTB 139) express ETA receptors. These cells were grown to confluence in T-175 flasks. Cells from multiple flasks were collected by scraping, pooled and centrifuged for 10 min at 190×g. The cells were resuspended in phosphate buffered saline (PBS) containing 10 mM EDTA using a Tenbroeck homogenizer. The suspension was centrifuged at 4° C. at 57,800×g for 15 min, the pellet was resuspended in 5 ml of buffer A (5 mM HEPES buffer, pH 7.4 containing aprotinin (100 KIU/ml)) and then frozen and thawed once. 5 ml of Buffer B (5 mM HEPES Buffer, pH 7.4 containing 10 mM MnCl2 and 0.001% deoxyribonuclease Type 1) was added, the suspension mixed by inversion and then incubated at 37° C. for 30 minutes. The mixture was centrifuged at 57,800×g as described above, the pellet washed twice with buffer A and then resuspended in buffer C (30 mM HEPES buffer, pH 7.4 containing aprotinin (100 KIU/ml) to give a final protein concentration of 2 mg/ml and stored at −70° C. until use.
(§4) The membrane suspension was diluted with binding buffer (30 mM HEPES buffer, pH 7.4 containing 150 mM NaCl, 5 mM MgCl2, 0.5% Bacitracin) to a concentration of 8 μg/50 μl. ^25I-endothelin-1 (3,000 cpm, […]) was added to 50 μl of either: (A) endothelin-1 (for non specific binding) to give a final concentration 80 nM); (B) binding buffer (for total binding); or (C) a test compound (final concentration 1 nM to 100 μM). The membrane suspension (50 μl), containing up to 8 μg of membrane protein, was added to each of (A), (B), or (C). Mixtures were shaken, and incubated at 4° C. for 16-18 hours, and then centrifuged at 4° C. for 25 min at 2,500×g. Alternatively, the incubation was conducted at 24° C. When incubated at 24° C., the IC50 concentrations are 2- to 10-fold higher than when the incubation is conducted at 4° C. This, must be kept in mind when comparing IC50 concentrations among compounds provided herein.
The supernatant, containing unbound radioactivity, was decanted and the pellet counted on a Genesys multiwell gamma counter. The degree of inhibition of binding (D) was calculated according to the following equation: [formula]
Each test was generally performed in triplicate.
(§5) B. Endothelin Binding Inhibition—Binding Test #2: Inhibition of Binding to ETB Receptors
(§6) COS7 cells were transfected with DNA encoding the ETB receptor, The resulting cells, which express the human ETB receptor, were grown to confluence in T-150 flasks. Membrane was prepared as described above. The binding assay was performed as described above using the membrane preparation diluted with binding buffer to a concentration of 1 μg/50 μl.
Briefly, the COS7 cells, described above, that had been transfected with DNA encoding the ETB receptor and express the human ETB receptor on their surfaces were grown to confluence in T-175 flasks. Cells from multiple flasks were collected by scraping, pooled and centrifuged for 10 min at 190×g. The cells were resuspended in phosphate buffered saline (PBS) containing 10 mM EDTA using a Tenbroeck homogenizer. The suspension was centrifuged at 4° C. […]

human ETB receptor = molecular target: T1, human ETB receptor (Homo sapiens, UniProt P24530); experiment: Binding Test #2: inhibition of 125I-labeled ET-1 binding to ETB receptors (transfected COS7 cell membranes); conditions: ETB over ETA; preferably at least 3-fold greater affinity, more preferably 5-fold or more
T1 construct: expressed in transfected cells; host or cells: COS7 cells, membrane preparation
T1 sequence (P24530 27-442): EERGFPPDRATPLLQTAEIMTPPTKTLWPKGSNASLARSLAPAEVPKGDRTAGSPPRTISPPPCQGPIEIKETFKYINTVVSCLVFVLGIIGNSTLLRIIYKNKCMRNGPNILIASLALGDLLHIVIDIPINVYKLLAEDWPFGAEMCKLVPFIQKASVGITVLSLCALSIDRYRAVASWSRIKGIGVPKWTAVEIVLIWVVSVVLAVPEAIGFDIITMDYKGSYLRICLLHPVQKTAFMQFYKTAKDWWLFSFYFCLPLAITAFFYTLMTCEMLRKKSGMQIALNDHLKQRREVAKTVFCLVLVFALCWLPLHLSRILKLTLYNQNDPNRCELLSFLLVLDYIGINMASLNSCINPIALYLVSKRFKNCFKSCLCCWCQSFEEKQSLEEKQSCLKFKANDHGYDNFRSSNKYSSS
Text: as §1, §5, §6
Briefly, the COS7 cells, described above, that had been transfected with DNA encoding the ETB receptor and express the human ETB receptor on their surfaces were grown to confluence in T-175 flasks. Cells from multiple flasks were collected by scraping, pooled and centrifuged for 10 min at 190×g. The cells were resuspended in phosphate buffered saline (PBS) containing 10 mM EDTA using a Tenbroeck homogenizer. The suspension was centrifuged at 4° C. 57,800×g for 15 min, the pellet was resuspended in 5 ml of buffer A (5 mM HEPES buffer, pH 7.4 containing aprotinin (100 KIU/ml)) and then frozen and thawed once. Five ml of Buffer B (5 mM HEPES Buffer, pH 7.4 containing 10 mM MnCl2 and 0.001% deoxyribonuclease Type 1) was added, the suspension mixed by inversion and then incubated at 37° C. for 30 minutes. The mixture was centrifuged at 57,800×g as described above, the pellet washed twice with buffer A and then resuspended in buffer C (30 mM HEPES buffer, pH 7.4 containing aprotinin (100 KIU/ml) to give a final protein concentration of 2 mg/ml.
The binding assay was performed as described above using the membrane preparation diluted to give 1 μg/50 μl of binding buffer.

human ETA receptors = molecular target: T2, human ETA receptors (Homo sapiens, UniProt P25101); experiment: Binding Test #1: inhibition of 125I-labeled ET-1 binding to ETA receptors (TE 671 cell membranes); conditions: ETA over ETB; preferably at least 3-fold greater affinity, more preferably 5-fold or more
T2 construct: endogenous in cells; host or cells: TE 671 cells (ATCC HTB 139), membrane preparation
T2 sequence (P25101 21-427): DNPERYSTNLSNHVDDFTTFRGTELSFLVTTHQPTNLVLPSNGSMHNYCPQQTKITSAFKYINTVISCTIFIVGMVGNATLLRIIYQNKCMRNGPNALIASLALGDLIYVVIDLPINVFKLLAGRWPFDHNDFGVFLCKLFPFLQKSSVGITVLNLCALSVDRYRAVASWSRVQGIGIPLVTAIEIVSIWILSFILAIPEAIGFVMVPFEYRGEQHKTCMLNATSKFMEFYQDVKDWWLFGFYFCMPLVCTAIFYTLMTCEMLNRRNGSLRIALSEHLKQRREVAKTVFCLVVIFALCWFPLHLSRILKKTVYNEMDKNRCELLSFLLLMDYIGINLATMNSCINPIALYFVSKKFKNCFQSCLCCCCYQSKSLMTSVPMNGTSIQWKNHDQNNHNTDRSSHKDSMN
Text: as §1, §2, §3
as §4, with “When incubated at 24° C., the IC50 concentrations are 2- to 10-fold higher than when the incubation is conducted at 4° C. This, must be kept in mind when comparing IC50 concentrations among compounds provided herein.” left out
The supernatant, containing unbound radioactivity, was decanted and the pellet counted on a Genesys multiwell gamma counter. The degree of inhibition of binding (D) was calculated according to the following equation: [formula] […]

[1] = test system: non-cardiovascular tissues, such as kidney, adrenal gland, and cerebellum (ETB receptors predominate); conditions: cited from earlier work
ETB receptors = conditions: tissues in which ETB receptors predominate; read-out: fails to inhibit binding to receptors at concentrations up to; cited from earlier work
ETA receptor = conditions: read-out: IC50, inhibition of 125I-labelled endothelin-1 binding, cited from earlier work
isolated vascular strips = conditions: read-out: EC50, contractile agent; cited from earlier work
[2] = test system: cardiovascular tissues (ETA receptors predominate); conditions: cited from earlier work

## 2-[3,4-(methylenedioxy)phenoxy]-6-[2-(1-propenyl)-3,4-(methylenedioxy)phenoxy]benzoic acid [Example 17]
ETA and ETB receptors
  More active among these compounds: More active
Human ETB receptor
  ETB selective (interact with greater affinity with one receptor sub-type than with the other): ETB selective

## 4,6-Bis[2-carboxy-3,4-(methylenedioxy)phenoxy]-2-(methylthio)pyrimidine
Human ETA receptors
  ETA selective (interact with greater affinity with one receptor sub-type than with the other): ETA selective

## 4-[2-carboxy-3,4-(methylenedioxy)phenoxy]-6-[3,4-(methylenedioxy)phenoxy]-2-(methylthio)-pyrimidine
Human ETA receptors
  ETA selective (interact with greater affinity with one receptor sub-type than with the other): ETA selective

## COc1ccc(Oc2cccc(Oc3ccc(OC)cc3)c2C(=O)O)cc1 [Example 6, 2,6-bis-(4-methoxyphenoxy)benzoic acid]
Human ETB receptor
  ETB selective (interact with greater affinity with one receptor sub-type than with the other): ETB selective
other
  melting point: 222 to 224 °C

## Cc1ccc(Oc2cccc(Oc3ccc(C)cc3)c2C(=O)O)cc1 [Example 8, 2,6-bis-(4-methylphenoxy)benzoic acid]
Human ETB receptor
  ETB selective (interact with greater affinity with one receptor sub-type than with the other): ETB selective
other
  melting point: 205 to 206 °C

## O=C(O)c1c(Oc2ccccc2)cccc1Oc1ccccc1 [Example 9, 2,6-diphenoxybenzoic acid]
other
  melting point: 150 to 153 °C

## O=C(O)Cc1cccc(Oc2cccc(Oc3ccc4c(c3)OCO4)c2C(=O)O)c1 [Example 13, 2-[(3-Carboxymethyl)phenoxy]-6-[3,4-(methylenedioxy)phenoxy]benzoic acid]
Human ETA receptors
  ETA selective (interact with greater affinity with one receptor sub-type than with the other): ETA selective
Human ETB receptor
  ETB selective (interact with greater affinity with one receptor sub-type than with the other): ETB selective

## O=C(O)Cc1ccc(Oc2cccc(Oc3ccc4c(c3)OCO4)c2C(=O)O)cc1 [Example 14, 2-[(4-Carboxymethyl)phenoxy]-6-[3,4-(methylenedioxy)phenoxy]benzoic acid]
Human ETA receptors
  ETA selective (interact with greater affinity with one receptor sub-type than with the other): ETA selective

## O=C(O)CCc1cc2c(cc1Oc1cccc(Oc3ccc4c(c3)OCO4)c1C(=O)O)OCO2 [Example 19, 2-(3,4-methylenedioxy)phenoxy-6-[2-carboxyethyl-4,5-(methylenedioxy)phenoxy]benzoic acid]
ETA and ETB receptors
  More active among these compounds: More active
Human ETB receptor
  ETB selective (interact with greater affinity with one receptor sub-type than with the other): ETB selective

## (Thr^2,Phe^4,Thr^5,Tyr^6,Lys^7,Tyr^14) endothelin-1 [endothelin-3]
[1]
  extent of inhibition of 125I-labelled endothelin-1 binding: to the same extent

## cyclo(D-Glu-L-Ala-allo-D-Ile-L-Leu-D-Trp) [BE-18257B]
ETB receptors
  IC50: > 100 µM
ETA receptor; aortic smooth muscle
  IC50: 1.4 µM
ETA receptor; cultured aortic smooth muscle cells
  IC50: 0.5 µM
ETA receptor; ventricle membranes
  IC50: 0.8 µM

## endothelin-1: endothelium-derived potent twenty-one amino acid peptide vasoconstrictor, one of three endothelin isopeptides
Isolated vascular strips
  EC50: 0.0004 µM
[2]
  potency of inhibition of 125I-labelled endothelin-1 binding relative to endothelin-3: forty to seven hundred times more potently
[1]
  extent of inhibition of 125I-labelled endothelin-1 binding: to the same extent
